# From PubChem BioAssay (NCI)
#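 The compound was tested at five concentrations on cells cultured in 96-well plates, with a 48-hour exposure period. Here, GI50 denotes the concentration required for 50% inhibition of growth. TGI marks complete inhibition of growth.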
# Key:
# Assay in all cases: NCI-60 cell line screen, 48 h
# [1] = system: SW-620 colon
# [2] = system: NCI/ADR-RES ovarian
# [3] = system: DU-145 prostate
# [4] = system: SK-MEL-5 melanoma
# [5] = system: MDA-MB-231 breast
# [6] = system: ACHN renal
# [7] = system: SK-MEL-28 melanoma
# [8] = system: IGROV1 ovarian
SMILES,GI50 [1],TGI [1],GI50 [2],TGI [2],GI50 [3],TGI [3],GI50 [4],TGI [4],GI50 [5],TGI [5],GI50 [6],TGI [6],GI50 [7],TGI [7],GI50 [8],TGI [8]
Cc1cccc2c(=O)c3c(sc12)c(NCCN)nc1ccccc13,0.794 µM,1.57 µM,0.909 µM,1.95 µM,0.981 µM,1.97 µM,0.953 µM,1.94 µM,0.664 µM,1.41 µM,0.762 µM,1.43 µM,0.936 µM,1.7 µM,0.582 µM,1.26 µM
O=C1C=CC(=O)N1CCCCCCCCCCN1C(=O)C=CC1=O,2.42 µM,6.09 µM,21.2 µM,55.9 µM,15.8 µM,29.2 µM,22.2 µM,56.1 µM,15.7 µM,29.5 µM,4.85 µM,16.8 µM,14.8 µM,30.9 µM,7.89 µM,24.7 µM
N=C1N=Nc2nc(C3(c4nc5n(c4O)C(=N)N=N5)Cc4ccccc4C3=O)c(O)n21 (stereo not given),,> 100 µM,,> 100 µM,,> 100 µM,,> 100 µM,,> 100 µM,,> 100 µM,,> 100 µM,63.7 µM,> 100 µM
COc1ccc(-c2oncc2-c2cc(OC)c3c(c2)OCO3)cc1,1.18 µM,> 100 µM,1.63 µM,24.4 µM,3.93 µM,> 100 µM,2.84 µM,14.1 µM,2.8 µM,54 µM,4.81 µM,> 100 µM,3.21 µM,> 100 µM,3.9 µM,> 65.7 µM
COc1ccc(C2SC(C)C(=O)N2NC(=O)C(O)c2ccccc2)cc1 (stereo not given),> 100 µM,> 100 µM,> 100 µM,> 100 µM,> 100 µM,> 100 µM,> 100 µM,> 100 µM,> 100 µM,> 100 µM,> 100 µM,> 100 µM,> 100 µM,> 100 µM,> 100 µM,> 100 µM
NS(=O)(=O)c1ccc(NCc2cnc3ccccc3c2)cc1,,> 100 µM,,> 100 µM,,> 100 µM,,> 100 µM,,> 100 µM,,> 100 µM,,> 100 µM,,> 100 µM
COC(=O)/C(Br)=C/c1c[nH]c2ccc(Br)cc12,14.7 µM,27.8 µM,12.4 µM,47.8 µM,13.2 µM,25.9 µM,12.2 µM,24.6 µM,11.2 µM,30.4 µM,11.8 µM,43.2 µM,14.3 µM,27.8 µM,,
O=C(CN/C=C\C(=O)c1cc(Cl)ccc1Cl)c1ccccc1,32 µM,> 100 µM,19.7 µM,41.2 µM,33.4 µM,> 100 µM,18.1 µM,33.7 µM,21.6 µM,47.5 µM,> 100 µM,> 100 µM,41.9 µM,> 100 µM,29.1 µM,> 100 µM
Cn1c2ccccc2c(=S)c2cc(NC(=O)CCCCC(=O)Nc3ccc4c(c3)c(=S)c3ccccc3n4C)ccc21,,> 100 µM,,> 100 µM,,> 100 µM,,> 100 µM,,> 100 µM,,> 100 µM,,> 100 µM,,> 100 µM
Clc1cccc(Cc2cn3cc(-c4ccccc4)nc3s2)c1,1.26 µM,> 100 µM,3.49 µM,> 100 µM,17.7 µM,> 100 µM,2.67 µM,> 100 µM,1.91 µM,21.3 µM,2.77 µM,> 100 µM,61.5 µM,> 100 µM,5.36 µM,> 100 µM
CN(C)CCOc1cccc(NC2=C(Cl)C(=O)C(Nc3cccc(OCCN(C)C)c3)=C(Cl)C2=O)c1,0.207 µM,0.438 µM,2.44 µM,> 26.4 µM,0.366 µM,1.27 µM,0.792 µM,2.04 µM,0.54 µM,1.17 µM,0.219 µM,0.465 µM,1.03 µM,2.49 µM,0.235 µM,0.663 µM
O=C1[C@H](c2ccccc2)C2c3ccccc3CCN12 (stereo not given in full),> 100 µM,> 100 µM,> 100 µM,> 100 µM,> 100 µM,> 100 µM,> 100 µM,> 100 µM,> 100 µM,> 100 µM,> 100 µM,> 100 µM,> 100 µM,> 100 µM,> 100 µM,> 100 µM
NNc1nc(-c2ccccn2)nc2sc3c(c12)CCCCCC3,4.53 µM,> 100 µM,0.453 µM,52.3 µM,9.48 µM,> 100 µM,3.16 µM,24.1 µM,12.7 µM,> 100 µM,4.87 µM,63.9 µM,14.9 µM,> 100 µM,4.21 µM,> 100 µM
COc1cc2c(cc1C)NC(=O)/C2=C/c1c(C)nc2sc(C)cn12,63 µM,> 100 µM,45.5 µM,> 100 µM,> 100 µM,> 100 µM,24.4 µM,64.7 µM,40.9 µM,> 100 µM,> 100 µM,> 100 µM,> 100 µM,> 100 µM,26.8 µM,> 100 µM
C#CCOc1c(OC)cc(C(=O)/C(C)=C/c2cccc(N=[N+]=[N-])c2)cc1OC,0.0503 µM,> 100 µM,0.119 µM,> 100 µM,0.296 µM,> 100 µM,0.288 µM,54.3 µM,0.695 µM,26.1 µM,0.682 µM,> 100 µM,29 µM,> 100 µM,0.766 µM,> 100 µM
